Patent US4107424A, “1-N-[(S)-α-hydroxy-ω-aminoacyl] derivatives of 3',4'-dideoxykanamycin B and 3'-deoxykanamycin B antibiotics” (Zaidan Hojin Biseibutsu Kagaku Kenkyu Kai, priority 1972, dated 1978)
Converted amounts (≈) assume the structure as drawn.

Key:
Proteus rettgeri GN 311 = assay: Minimal inhibitory concentration, agar dilution streak method; type: cell-based; settings: Providencia rettgeri, GN311; nutrient agar, 37° C, 18 hours
Procedure: (§1) [α]D^22 + 38°, (c 0.85, water).
(§2) *Agar Agar dilution streak method (nutrient agar, 37° C, 18 hours)
(§3) *Agar dilution streak method (nutrient agar, 37° C, 18 hours).

[1] = tested on: Escherichia coli K-12 R-5; assay: as above; type: cell-based; settings: K12R5, nutrient agar, 37° C, 18 hours
Procedure: as §1, §2, §3

[2] = tested on: Bacillus subtilis NRRL B-558; assay: as above; type: cell-based; settings: NRRLB558, nutrient agar, 37° C, 18 hours
Procedure: as §1, §2, §3

[3] = tested on: Escherichia coli K-12 C 600 R 135; assay: as above; type: cell-based; settings: 18 h, read-out: Minimal inhibitory concentration
Procedure: as §1, §2, §3

Escherichia coli NIHJ = assay: as above; type: cell-based; settings: nutrient agar, 37° C, 18 hours
Procedure: as §1, §2, §3

[4] = tested on: Klebsiella pneumoniae PCI 602; assay: as above; type: cell-based; settings: PCI602, nutrient agar, 37° C, 18 hours
Procedure: as §1, §2, §3

[5] = tested on: Escherichia coli J 5 R 11-2; assay: as above; type: cell-based; settings: J5R112, 18 h, read-out: Minimal inhibitory concentration
Procedure: as §1, §2, §3

Sarcina lutea PCI 1001 = assay: as above; type: cell-based; settings: Micrococcus luteus, PCI1001; nutrient agar, 37° C, 18 hours; read-out: Minimal inhibitory concentration
Procedure: as §1, §2, §3

Salmonella typhosa T-63 = assay: as above; type: cell-based; settings: Salmonella enterica, nutrient agar, 37° C, 18 hours
Procedure: as §1, §2, §3

[6] = tested on: Pseudomonas aeruginosa 99; assay: as above; type: cell-based; settings: nutrient agar, 37° C, 18 hours, read-out: Minimal inhibitory concentration
Procedure: as §1, §2, §3

Proteus rettgeri GN 466 = assay: as above; type: cell-based; settings: Providencia rettgeri, GN466; nutrient agar, 37° C, 18 hours
Procedure: as §1, §2, §3

in vivo = settings: mouse, iv
[7] = tested on: Escherichia coli K-12 ML 1410; assay: Minimal inhibitory concentration, agar dilution streak method; type: cell-based; settings: K12ML1410, nutrient agar, 37° C, 18 hours, read-out: Minimal inhibitory concentration
Procedure: as §2, §3

[8] = tested on: Escherichia coli K-12 W 677; assay: as above; type: cell-based; settings: K12W677, nutrient agar, 37° C, 18 hours, read-out: Minimal inhibitory concentration
Procedure: as §2, §3

[9] = tested on: Pseudomonas aeruginosa TI-13; assay: as above; type: cell-based; settings: TI13, nutrient agar, 37° C, 18 hours, read-out: Minimal inhibitory concentration
Procedure: as §2, §3

[10] = tested on: Escherichia coli K-12 LA 290 R 64; assay: as above; type: cell-based; settings: nutrient agar, 37° C, 18 hours, read-out: Minimal inhibitory concentration
Procedure: as §2, §3

[11] = tested on: Escherichia coli K-12 ML 1410 R 81; assay: as above; type: cell-based; settings: 18 h, read-out: Minimal inhibitory concentration
Procedure: as §2, §3

[12] = tested on: Staphylococcus aureus FDA 209P; assay: as above; type: cell-based; settings: FDA209P, nutrient agar, 37° C, 18 hours, read-out: Minimal inhibitory concentration
Procedure: as §2, §3

[13] = tested on: Escherichia coli K-12 LA 290 R 55; assay: as above; type: cell-based; settings: 18 h, read-out: Minimal inhibitory concentration
Procedure: as §2, §3

[14] = tested on: Pseudomonas aeruginosa No.12; assay: as above; type: cell-based; settings: nutrient agar, 37° C, 18 hours, read-out: Minimal inhibitory concentration
Procedure: as §2, §3

Escherichia coli K-12 = assay: as above; type: cell-based; settings: K12, nutrient agar, 37° C, 18 hours, read-out: Minimal inhibitory concentration
Procedure: as §2, §3

[15] = tested on: Escherichia coli K-12 ML 1629; assay: as above; type: cell-based; settings: K12ML1629, nutrient agar, 37° C, 18 hours, read-out: Minimal inhibitory concentration
Procedure: as §2, §3

[16] = tested on: Pseudomonas aeruginosa A 3; assay: as above; type: cell-based; settings: A3, nutrient agar, 37° C, 18 hours, read-out: Minimal inhibitory concentration
Procedure: as §2, §3

[17] = tested on: Klebsiella pneumoniae type 22 #3038; assay: as above; type: cell-based; settings: for MIC: Klebsiella pneumoniae, nutrient agar, 37° C, 18 hours
Procedure: as §2, §3

[18] = tested on: Escherichia coli K-12 JR 66/W 677; assay: as above; type: cell-based; settings: for MIC: Escherichia coli, 18 h, read-out: Minimal inhibitory concentration
Procedure: as §2, §3

[19] = tested on: Pseudomonas aeruginosa GN 315; assay: as above; type: cell-based; settings: GN315, nutrient agar, 37° C, 18 hours, read-out: Minimal inhibitory concentration
Procedure: as §2, §3

[20] = tested on: Escherichia coli K-12 ML 1630; assay: as above; type: cell-based; settings: K12ML1630, nutrient agar, 37° C, 18 hours, read-out: Minimal inhibitory concentration
Procedure: as §2, §3

[21] = tested on: Escherichia coli K-12 LA 290 R 56; assay: as above; type: cell-based; settings: 18 h, read-out: Minimal inhibitory concentration
Procedure: as §2, §3

[22] = tested on: Mycobacterium smegmatis ATCC 607; assay: as above; type: cell-based; settings: Mycolicibacterium smegmatis, ATCC607; nutrient agar, 37° C, 48 hours; read-out: Minimal inhibitory concentration
[23] = tested on: gram-positive and gram-negative bacteria; assay: Antibacterial activity (in words); type: cell-based; settings: sensitive (and resistant) bacteria
Procedure: as §1

[24] = strain resistant to butirosin B

| Structure (SMILES) | MIC (Proteus rettgeri GN 311) | MIC [1] | MIC [2] | MIC [3] | MIC (Escherichia coli NIHJ) | MIC [4] | MIC [5] | MIC (Sarcina lutea PCI 1001) | MIC (Salmonella typhosa T-63) | MIC [6] | MIC (Proteus rettgeri GN 466) | MIC [7] | MIC [8] | MIC [9] | MIC [10] | MIC [11] | MIC [12] | MIC [13] | MIC [14] | MIC (Escherichia coli K-12) | further results |
| --- | --- | --- | --- | --- | --- | --- | --- | --- | --- | --- | --- | --- | --- | --- | --- | --- | --- | --- | --- | --- | --- |
| NCC[C@H](O)C(=O)N[C@@H]1C[C@H](N)[C@@H](O[C@H]2O[C@H](CN)CC[C@H]2N)[C@H](O[C@@H]2O[C@H](CO)[C@@H](O)[C@H]2O)[C@H]1O [AHB-dideoxyribostamycin, 1-N-[(S)-4-amino-2-hydroxybutyryl]-3',4'-dideoxyribostamycin] | 12.5 µg/mL (≈ 23.9 µM) | 6.25 µg/mL (≈ 11.9 µM) | < 0.39 µg/mL | 0.78 µg/mL (≈ 1.49 µM) | 1.56 µg/mL (≈ 2.98 µM) | 0.78 µg/mL (≈ 1.49 µM) | < 0.39 µg/mL | 25 µg/mL (≈ 47.7 µM) | 0.39 µg/mL (≈ 0.745 µM) | 25 µg/mL (≈ 47.7 µM) | 3.12 µg/mL (≈ 5.96 µM) | 0.78 µg/mL (≈ 1.49 µM) | 0.78 µg/mL (≈ 1.49 µM) | 12.5 µg/mL (≈ 23.9 µM) | 1.56 µg/mL (≈ 2.98 µM) | 1.56 µg/mL (≈ 2.98 µM) | 1.56 µg/mL (≈ 2.98 µM) | 1.56 µg/mL (≈ 2.98 µM) | 6.25 µg/mL (≈ 11.9 µM) | 1.56 µg/mL (≈ 2.98 µM) | LD50 (in vivo): > 100 mg/kg; MIC [15]: 1.56 µg/mL (≈ 2.98 µM); MIC [16]: 6.25 µg/mL (≈ 11.9 µM); MIC [17]: 3.12 µg/mL (≈ 5.96 µM); effectiveness against Klebsiella pneumoniae type 22 #3038 [17, 24]: effective; effectiveness against Escherichia coli K-12 JR 66/W 677 [18, 24]: effective; MIC [19]: > 100 µg/mL; MIC [20]: 0.78 µg/mL (≈ 1.49 µM); MIC [21]: < 0.39 µg/mL; MIC [22]: < 0.39 µg/mL; antibacterial activity compared with parent or reference substance [23]: strongly enhanced antibacterial activity as compared with that of ribostamycin and 3',4'-dideoxyribostamycin and was comparable to that of butirosin B |
| NC[C@H]1O[C@H](O[C@H]2[C@H](O)[C@@H](O)[C@H](N)C[C@@H]2N)[C@H](N)[C@@H](O)[C@@H]1O [Neamine, neamine] | 100 µg/mL (≈ 310 µM) | > 100 µg/mL | 0.78 µg/mL (≈ 2.42 µM) | 12.5 µg/mL (≈ 38.8 µM) | 12.5 µg/mL (≈ 38.8 µM) | 12.5 µg/mL (≈ 38.8 µM) | > 100 µg/mL | > 100 µg/mL | 3.12 µg/mL (≈ 9.68 µM) | > 100 µg/mL | 25 µg/mL (≈ 77.6 µM) | 12.5 µg/mL (≈ 38.8 µM) | 6.25 µg/mL (≈ 19.4 µM) | > 100 µg/mL | 6.25 µg/mL (≈ 19.4 µM) | > 100 µg/mL | 6.25 µg/mL (≈ 19.4 µM) | 5.25 µg/mL (≈ 16.3 µM) | > 100 µg/mL | 6.25 µg/mL (≈ 19.4 µM) | MIC [15]: > 100 µg/mL; MIC [16]: > 100 µg/mL; MIC [17]: > 100 µg/mL; MIC [18]: > 100 µg/mL; MIC [19]: > 100 µg/mL; MIC [20]: > 100 µg/mL; MIC [21]: 12.5 µg/mL (≈ 38.8 µM); MIC [22]: 12.5 µg/mL (≈ 38.8 µM) |
| NC[C@H]1O[C@H](O[C@H]2[C@H](O[C@@H]3O[C@H](CO)[C@@H](O)[C@H]3O)[C@@H](O)[C@H](N)C[C@@H]2N)[C@H](N)[C@@H](O)[C@@H]1O [Ribostamycin, 5-0-β-D-ribofuranosyl-neamine] | 12.5 µg/mL (≈ 27.5 µM) | 50 µg/mL (≈ 110 µM) | 3.12 µg/mL (≈ 6.87 µM) | 1.56 µg/mL (≈ 3.43 µM) | 6.25 µg/mL (≈ 13.8 µM) | 1.56 µg/mL (≈ 3.43 µM) | > 100 µg/mL | 100 µg/mL (≈ 220 µM) | 1.56 µg/mL (≈ 3.43 µM) | > 100 µg/mL | 6.25 µg/mL (≈ 13.8 µM) | 3.12 µg/mL (≈ 6.87 µM) | 1.56 µg/mL (≈ 3.43 µM) | > 100 µg/mL | 1.56 µg/mL (≈ 3.43 µM) | > 100 µg/mL | 3.12 µg/mL (≈ 6.87 µM) | 3.12 µg/mL (≈ 6.87 µM) | > 100 µg/mL | 3.12 µg/mL (≈ 6.87 µM) | MIC [15]: > 100 µg/mL; MIC [16]: > 100 µg/mL; MIC [17]: > 100 µg/mL; MIC [18]: > 100 µg/mL; MIC [19]: > 100 µg/mL; MIC [20]: > 100 µg/mL; MIC [21]: 3.12 µg/mL (≈ 6.87 µM); MIC [22]: 6.25 µg/mL (≈ 13.8 µM) |
